From patent US20060002960A1 (priority 2003, published 2006)
pIC50, pKd: −log10 of the molar value. “And” between values parts separate entries of the source, which are not always exact repeats. Equal values may be shown once. Read-outs that look alike come from different tables or passages of the source.

Key:
[1] = test system: C57B1/6 mice; conditions: mouse, in vivo
[2] = biological target: LT or CT; conditions: cited from earlier work
[3] = test system: C57B1/6 mice; conditions: mouse, in vivo; remark: listed apart in the source
[4] = test system: mice; conditions: mouse, in vivo
[5] = test system: mice; conditions: mouse, in vivo; remark: listed apart in the source
[6] = test system: mice; conditions: mouse, in vivo; remark: listed apart in the source
[7] = cited from earlier work
[8] = test system: Y-1 adrenal cells; assay type: cell-based
[9] = test system: C57B1/6 mice; conditions: mouse, in vivo; remark: listed apart in the source
[10] = test system: C57B1/6 mice; conditions: mouse, in vivo; remark: listed apart in the source
[11] = test system: mice; conditions: mouse, in vivo; remark: listed apart in the source
[12] = test system: C57B1/6 mice; conditions: mouse, in vivo; remark: listed apart in the source
[13] = test system: C57B1/6 mice; conditions: mouse, in vivo; remark: listed apart in the source
[14] = test system: C57B1/6 mice; conditions: mouse, in vivo; remark: listed apart in the source
[15] = test system: C57B1/6 mice; conditions: mouse, in vivo; remark: listed apart in the source
[16] = test system: Balb/c mice; conditions: mouse, in vivo, po

Gal-β1,3-GalNAc-β1,4-(NeuAc-α2,3)-Gal-β1,4-Glc-β1,1-ceramide [GM1]
Diameter skin nodules, Average Mean ± SD [1]: 0 cm
Diameter skin nodules, Individual Mice [1]: 0 cm
skin nodules / inflammatory response after intradermal injection [1]: not inflammatory
pKd ([2]; read-out: affinity): 8.00 to 10.00

cholera toxin [CT]
TT IgG, Assay values (Elisa Units) Individual Mice [3]: 11222 Elisa Units and 14300 Elisa Units and 29533 Elisa Units and 63092 Elisa Units and 125687 Elisa Units
TT IgG, Geometric mean [3]: 32734 Elisa Units
fold greater antibody titers to TT than the non-adjuvanted vaccine [3]: 105 fold
TT IgG, Assay values (Elisa Units) Individual Mice [4]: 71077 Elisa Units and 113082 Elisa Units and 75238 Elisa Units and 123721 Elisa Units and 61438 Elisa Units
TT IgG, Geometric mean [4]: 85603 Elisa Units
fold higher antibody titers to TT than the non-adjuvanted vaccine [4]: 426 fold
skin nodules / inflammatory response after intradermal injection [1]: skin nodules
inflammatory response after IM injection [5]: muscle swelling
TT IgG, Geometric mean [6]: 95419 Elisa Units
fold higher titers than the non-adjuvanted vaccine [6]: 823 fold
fold more active than CT/GM1 [6]: 1.6 to 3 fold
pKd [7]: 9.22

O=C(O)[C@H](O)[C@@H](O)[C@H](O)[C@H](O)CO[C@H]1O[C@H](CO)[C@H](O)[C@H](O)[C@H]1O [melibionic acid]
pIC50 [2]: 1.96 to 2.30

O=[N+]([O-])c1cccc(OC2OC(CO)C(O)C(O)C2O)c1 (stereo not drawn) [m-nitrophenyl α-galactoside]
pIC50 [2]: 3.15 to 3.22

Escherichia coli heat-labile enterotoxin [LT]
rounding of cultured cells [8]: 70-100%
percentage of rounded cells ([8]; 0.05 ng/ml, 6-8 h): −−− (key: +++ 70-100% rounded cells; ++ 50-75%; + 25-50%; −−− <25%)
percentage of rounded cells ([8]; 0.1 ng/ml, 6-8 h): −−− (key: +++ 70-100% rounded cells; ++ 50-75%; + 25-50%; −−− <25%)
percentage of rounded cells ([8]; 0.2 ng/ml, 6-8 h): + (key: +++ 70-100% rounded cells; ++ 50-75%; + 25-50%; −−− <25%)
percentage of rounded cells ([8]; 0.4 ng/ml, 6-8 h): ++ (key: +++ 70-100% rounded cells; ++ 50-75%; + 25-50%; −−− <25%)
percentage of rounded cells ([8]; 0.8 ng/ml, 6-8 h): +++ (key: +++ 70-100% rounded cells; ++ 50-75%; + 25-50%; −−− <25%)
percentage of rounded cells ([8]; 1.6 ng/ml, 6-8 h): +++ (key: +++ 70-100% rounded cells; ++ 50-75%; + 25-50%; −−− <25%)
percentage of rounded cells ([8]; 3.1 ng/ml, 6-8 h): +++ (key: +++ 70-100% rounded cells; ++ 50-75%; + 25-50%; −−− <25%)
percentage of rounded cells ([8]; 6.3 ng/ml, 6-8 h): +++ (key: +++ 70-100% rounded cells; ++ 50-75%; + 25-50%; −−− <25%)
percentage of rounded cells ([8]; 12.5 ng/ml, 6-8 h): +++ (key: +++ 70-100% rounded cells; ++ 50-75%; + 25-50%; −−− <25%)
percentage of rounded cells ([8]; 25 ng/ml, 6-8 h): +++ (key: +++ 70-100% rounded cells; ++ 50-75%; + 25-50%; −−− <25%)
percentage of rounded cells ([8]; 50 ng/ml, 6-8 h): +++ (key: +++ 70-100% rounded cells; ++ 50-75%; + 25-50%; −−− <25%)
percentage of rounded cells ([8]; 100 ng/ml, 6-8 h at 37° C.): +++ (key: +++ 70-100% rounded cells; ++ 50-75%; + 25-50%; −−− <25%)
TT IgG, Assay values (Elisa Units) Individual Mice [3]: 188314 Elisa Units and 222731 Elisa Units and 178753 Elisa Units and 88333 Elisa Units and 192934 Elisa Units and 201494 Elisa Units and 169482 Elisa Units and 379919 Elisa Units and 73992 Elisa Units and 615173 Elisa Units and 204102 Elisa Units and 146225 Elisa Units and 183724 Elisa Units and 323948 Elisa Units and 202170 Elisa Units and 185486 Elisa Units and 85832 Elisa Units and 163652 Elisa Units and 208284 Elisa Units and 83436 Elisa Units and 63293 Elisa Units and 50116 Elisa Units and 121818 Elisa Units and 176340 Elisa Units and 114780 Elisa Units and 131805 Elisa Units and 6246 Elisa Units and 11745 Elisa Units and 31797 Elisa Units
anti-TT IgG GMT [3]: 282,000
fold greater anti-TT IgG titers than the non-adjuvanted group [3]: 34 fold
immune response to co-administered TT [3]: significantly enhanced
anti-LT antibody titers GMT [9]: 196,000
Flu A IgG, Assay values (Elisa Units) Individual Mice [10]: 150 Elisa Units and 102 Elisa Units and 47 Elisa Units and 45 Elisa Units and 642 Elisa Units and 15498 Elisa Units and 3137 Elisa Units and 6852 Elisa Units and 18563 Elisa Units and 28151 Elisa Units
times more IFNγ and IL4 producing lymphocytes compared to TT alone [11]: 10 times
anti-OVA antibody titers GMT [12]: 32,000
lymph node cell response to re-stimulation with OVA or LT [13]: did respond to in vitro re-stimulation with OVA or LT by producing IFN-γ and IL-4
spleen cell IFN-γ response to re-stimulation [13]: did respond to re-stimulation by producing IFN-γ
anti-TT IgG titers GMT [14]: 150,000
anti-TT titers [14]: significantly increased
Anti-OVA titers GMT [15]: 51,000
anti-LT IgG titers GMT [15]: 30,000
fold increase of Anti-OVA titers [15]: 37 fold
fold increase in G:C compared to the buffer control group [16]: 2.4 fold
histological examination of injection site [1]: elicited an inflammatory response that persisted for days
mice with inflammatory response [1]: 4 of 7
persistence of induration [1]: greater than 2 weeks
skin nodules (incidence, words) [1]: did not cause skin nodules in six out of the seven injected mice
skin nodules / inflammatory response after intradermal injection [1]: caused skin nodules in all mice
toxin-induced inflammation [1]: completely abolished
inflammatory response after IM injection [5]: swelling of the thigh muscle
inflammatory response after SC injection ([5]; sc): formation of a large nodule
examination of the injection sites [6]: developed edema and inflammation at the site of injection
pKd [7]: 9.15

Nc1ccc(OC2OC(CO)C(O)C(O)C2O)cc1 (stereo not drawn) [p-aminophenyl α-galactoside]
pIC50 [2]: 1.92 to 2.32
